Values after ≈ are worked out from the molar mass of the structure shown.
How the values were obtained:
Staphylococcus aureus = experiment: Antibacterial activity against Staphylococcus aureus UC76 SA1 by micro-broth method; format: functional
Streptococcus pyogenes = experiment: Antibacterial activity against Streptococcus pyogenes C203 SP1-1 by micro-broth method; format: functional
Enterococcus faecalis = experiment: Antibacterial activity against Enterococcus faecalis MG2 EF1 by micro-broth method; format: functional
Streptococcus pneumoniae = experiment: Antibacterial activity against Streptococcus pneumoniae SV1 SP3 by micro-broth method; format: functional
Moraxella catarrhalis = experiment: Antibacterial activity against Moraxella catarrhalis BC-3531 by micro-broth method; format: functional
Escherichia coli = experiment: Inhibition of transcription and translation activity in Escherichia coli by luciferase reporter assay; format: functional, organism-based
Haemophilus influenzae = experiment: Antibacterial activity against Heamophilus influenzae HI3542 by microbroth method; format: functional

MIC (Staphylococcus aureus) [µg/mL]	MIC (Streptococcus pyogenes) [µg/mL]	MIC (Enterococcus faecalis) [µg/mL]	MIC (Streptococcus pneumoniae) [µg/mL]	MIC (Moraxella catarrhalis) [µg/mL]	IC50 (Escherichia coli) [µM]	MIC (Haemophilus influenzae) [µg/mL]	Compound
1 (≈ 3.16 µM)	0.5 (≈ 1.58 µM)	2 (≈ 6.32 µM)	0.5 (≈ 1.58 µM)				CC(=O)NC[C@H]1CN(c2ccc3c(c2)CCCCC3=O)C(=O)O1
1 (≈ 2.4 µM)	0.25 (≈ 0.599 µM)	0.5 (≈ 1.2 µM)	0.125 (≈ 0.299 µM)	2 (≈ 4.79 µM)	1	4 (≈ 9.58 µM)	CC(=O)NC[C@H]1CN(c2ccc3c(c2)CCCc2c(-c4cccnc4)n[nH]c2-3)C(=O)O1
0.5 (≈ 1.23 µM)	0.125 (≈ 0.308 µM)	0.25 (≈ 0.615 µM)	0.25 (≈ 0.615 µM)	1 (≈ 2.46 µM)	0.7	4 (≈ 9.84 µM)	CC(=O)NC[C@H]1CN(c2ccc3c(c2)CCCc2c(-c4ccoc4)n[nH]c2-3)C(=O)O1
0.25 (≈ 0.614 µM)	< 0.06	0.125 (≈ 0.307 µM)	< 0.06	1 (≈ 2.45 µM)	0.76	2 (≈ 4.91 µM)	CC(=O)NC[C@H]1CN(c2ccc3c(c2)CCCc2c(-c4ccno4)n[nH]c2-3)C(=O)O1
1 (≈ 2.36 µM)	1 (≈ 2.36 µM)	0.5 (≈ 1.18 µM)	0.125 (≈ 0.295 µM)	1 (≈ 2.36 µM)	1.1	2 (≈ 4.72 µM)	CC(=O)NC[C@H]1CN(c2ccc3c(c2)CCCc2c(-c4cscn4)n[nH]c2-3)C(=O)O1
> 64	0.25 (≈ 0.516 µM)	> 64	0.25 (≈ 0.516 µM)	> 64		16 (≈ 33 µM)	CC(=O)NC[C@H]1CN(c2ccc3c(c2)CCCc2c(-c4nnc(-c5ccccc5)o4)n[nH]c2-3)C(=O)O1
0.5 (≈ 1.47 µM)	0.125 (≈ 0.367 µM)	0.25 (≈ 0.734 µM)	0.25 (≈ 0.734 µM)	2 (≈ 5.88 µM)		2 (≈ 5.88 µM)	CC(=O)NC[C@H]1CN(c2ccc3c(c2)CCCc2cn[nH]c2-3)C(=O)O1
0.5 (≈ 1.2 µM)	0.5 (≈ 1.2 µM)	0.5 (≈ 1.2 µM)	0.5 (≈ 1.2 µM)	2 (≈ 4.8 µM)	2	8 (≈ 19.2 µM)	CC(=O)NC[C@H]1CN(c2ccc3c(c2)CCCc2c(-c4ccccc4)n[nH]c2-3)C(=O)O1
1 (≈ 2.31 µM)	2 (≈ 4.62 µM)	0.5 (≈ 1.16 µM)	0.25 (≈ 0.578 µM)	2 (≈ 4.62 µM)	1.7	4 (≈ 9.25 µM)	CC(=O)NC[C@H]1CN(c2ccc3c(c2)CCCc2c(-c4ccc(O)cc4)n[nH]c2-3)C(=O)O1
0.5 (≈ 1.13 µM)	0.125 (≈ 0.283 µM)	0.25 (≈ 0.566 µM)	0.25 (≈ 0.566 µM)	1 (≈ 2.27 µM)	1.4	4 (≈ 9.06 µM)	CC(=O)NC[C@H]1CN(c2ccc3c(c2)CCCc2c(-c4ccc(C#N)cc4)n[nH]c2-3)C(=O)O1
1 (≈ 2.17 µM)	0.5 (≈ 1.09 µM)	1 (≈ 2.17 µM)	0.5 (≈ 1.09 µM)	4 (≈ 8.69 µM)	16.8	32 (≈ 69.5 µM)	O=C(NC[C@H]1CN(c2ccc3c(c2)CCCc2c(-c4ccno4)n[nH]c2-3)C(=O)O1)c1ccno1
2 (≈ 4.38 µM)	0.5 (≈ 1.1 µM)	0.5 (≈ 1.1 µM)	0.5 (≈ 1.1 µM)	8 (≈ 17.5 µM)	> 31.2	> 64	CC(=O)NC[C@H]1CN(c2ccc3c(c2)CCCc2c(-c4cc5ccccc5o4)n[nH]c2-3)C(=O)O1
> 64	> 64	> 64	> 64	> 64		> 64	CC(=O)NC[C@H]1CN(c2ccc3c(c2)CCCc2c(-c4nc5ccccc5s4)n[nH]c2-3)C(=O)O1
2 (≈ 4.71 µM)	1 (≈ 2.36 µM)	2 (≈ 4.71 µM)	1 (≈ 2.36 µM)	8 (≈ 18.8 µM)	5.7	64 (≈ 151 µM)	CC(=O)NC[C@H]1CN(c2cc(F)c3c(c2)CCCc2c(-c4ccco4)n[nH]c2-3)C(=O)O1
2 (≈ 4.36 µM)	1 (≈ 2.18 µM)	1 (≈ 2.18 µM)	1 (≈ 2.18 µM)	4 (≈ 8.72 µM)	3.5	8 (≈ 17.4 µM)	O=C(NC[C@H]1CN(c2ccc3c(c2)CCCc2c(-c4ccoc4)n[nH]c2-3)C(=O)O1)c1ccoc1
4 (≈ 8.84 µM)	1 (≈ 2.21 µM)	2 (≈ 4.42 µM)	1 (≈ 2.21 µM)	32 (≈ 70.7 µM)	4.2	> 64	CC(=O)NC[C@H]1CN(c2cc(F)c3c(c2)CCCc2c(-c4cc(C)n(C)n4)n[nH]c2-3)C(=O)O1
2 (≈ 4.87 µM)	1 (≈ 2.44 µM)	2 (≈ 4.87 µM)	1 (≈ 2.44 µM)	8 (≈ 19.5 µM)	5.6	> 64	CCCC(=O)NC[C@H]1CN(c2ccc3c(c2)CCCc2c(CCC)n[nH]c2-3)C(=O)O1
> 64	2 (≈ 4.09 µM)	> 64	1 (≈ 2.05 µM)	> 64		> 64	Cc1cc(C(=O)NC[C@H]2CN(c3ccc4c(c3)CCCc3c(-c5cc(C)on5)n[nH]c3-4)C(=O)O2)no1
32 (≈ 57.3 µM)	4 (≈ 7.16 µM)	32 (≈ 57.3 µM)	8 (≈ 14.3 µM)	> 64	> 25	> 64	O=C(NC[C@H]1CN(c2ccc3c(c2)CCCc2c(-c4cc5ccccc5o4)n[nH]c2-3)C(=O)O1)c1cc2ccccc2o1

MIC (Staphylococcus aureus) [µg/mL]	MIC (Streptococcus pyogenes) [µg/mL]	MIC (Enterococcus faecalis) [µg/mL]	MIC (Streptococcus pneumoniae) [µg/mL]	MIC (Moraxella catarrhalis) [µg/mL]	IC50 (Escherichia coli) [µM]	MIC (Haemophilus influenzae) [µg/mL]	Compound
> 64	> 64	> 64	> 64	> 64	11.5	> 64	Cc1cc(C(=O)NC[C@H]2CN(c3cc(F)c4c(c3)CCCc3c(-c5cc(C)on5)n[nH]c3-4)C(=O)O2)no1
> 64	> 64	> 64	> 64	> 64	> 25	> 64	Cc1cc(C(=O)NC[C@H]2CN(c3cc(F)c4c(c3)CCCc3c(-c5cc(C)n(C)n5)n[nH]c3-4)C(=O)O2)nn1C
16 (≈ 43.8 µM)	2 (≈ 5.47 µM)	8 (≈ 21.9 µM)	4 (≈ 10.9 µM)	64 (≈ 175 µM)	8.3	> 64	NC[C@H]1CN(c2ccc3c(c2)CCCc2c(-c4ccno4)n[nH]c2-3)C(=O)O1
1 (≈ 2.29 µM)	0.5 (≈ 1.14 µM)	0.5 (≈ 1.14 µM)	0.5 (≈ 1.14 µM)	4 (≈ 9.14 µM)	1.8	> 64	CCOC(=O)NC[C@H]1CN(c2ccc3c(c2)CCCc2c(-c4ccno4)n[nH]c2-3)C(=O)O1
1 (≈ 2.31 µM)	0.25 (≈ 0.577 µM)	0.5 (≈ 1.15 µM)	0.25 (≈ 0.577 µM)	1 (≈ 2.31 µM)	1.3	32 (≈ 73.8 µM)	O=C(NC[C@H]1CN(c2ccc3c(c2)CCCc2c(-c4ccno4)n[nH]c2-3)C(=O)O1)C1CC1
0.5 (≈ 1.15 µM)	0.25 (≈ 0.575 µM)	0.5 (≈ 1.15 µM)	0.25 (≈ 0.575 µM)	4 (≈ 9.21 µM)	1.3	8 (≈ 18.4 µM)	CC(=O)NC[C@H]1CN(c2ccc3c(c2)CCCc2c(-c4cc(C)n(C)n4)n[nH]c2-3)C(=O)O1
8 (≈ 16 µM)	1 (≈ 2 µM)	8 (≈ 16 µM)	0.5 (≈ 1 µM)	> 64	> 11.4	> 64	CC(=O)NC[C@H]1CN(c2ccc3c(c2)CCCc2c(-c4csc(-c5ccccc5)n4)n[nH]c2-3)C(=O)O1
0.5 (≈ 1.15 µM)	1 (≈ 2.3 µM)	0.5 (≈ 1.15 µM)	0.25 (≈ 0.575 µM)	1 (≈ 2.3 µM)	1.5	8 (≈ 18.4 µM)	CC(=O)NC[C@H]1CN(c2ccc3c(c2)CCCc2c(-c4ccc(F)cc4)n[nH]c2-3)C(=O)O1
2 (≈ 4.79 µM)	0.25 (≈ 0.599 µM)	1 (≈ 2.4 µM)	0.25 (≈ 0.599 µM)	2 (≈ 4.79 µM)	1	4 (≈ 9.58 µM)	CC(=O)NC[C@H]1CN(c2ccc3c(c2)CCCc2c(-c4ccncc4)n[nH]c2-3)C(=O)O1
0.5 (≈ 1.19 µM)	0.25 (≈ 0.593 µM)	0.5 (≈ 1.19 µM)	0.25 (≈ 0.593 µM)	2 (≈ 4.75 µM)	0.9	4 (≈ 9.49 µM)	CC(=O)NC[C@H]1CN(c2ccc3c(c2)CCCc2c(-c4cc(C)on4)n[nH]c2-3)C(=O)O1
0.5 (≈ 1.14 µM)	0.125 (≈ 0.285 µM)	0.5 (≈ 1.14 µM)	0.25 (≈ 0.57 µM)	2 (≈ 4.56 µM)	0.7	8 (≈ 18.2 µM)	CC(=O)NC[C@H]1CN(c2ccc3c(c2)CCCc2c(-c4snnc4C)n[nH]c2-3)C(=O)O1
1 (≈ 2.35 µM)	0.25 (≈ 0.588 µM)	0.5 (≈ 1.18 µM)	0.5 (≈ 1.18 µM)	4 (≈ 9.4 µM)	1.4	> 64	CC(=O)NC[C@H]1CN(c2cc(F)c3c(c2)CCCc2c(-c4ccno4)n[nH]c2-3)C(=O)O1
1 (≈ 2.28 µM)	0.5 (≈ 1.14 µM)	0.5 (≈ 1.14 µM)	0.5 (≈ 1.14 µM)	4 (≈ 9.1 µM)	2.1	> 64	CC(=O)NC[C@H]1CN(c2cc(F)c3c(c2)CCCc2c(-c4cc(C)on4)n[nH]c2-3)C(=O)O1
2 (≈ 4.25 µM)	1 (≈ 2.13 µM)	1 (≈ 2.13 µM)	1 (≈ 2.13 µM)	32 (≈ 68 µM)	2.8	> 64	O=C(NC[C@H]1CN(c2ccc3c(c2)CCCc2c(-c4ccno4)n[nH]c2-3)C(=O)O1)c1cccnc1
0.5 (≈ 1.13 µM)	0.125 (≈ 0.282 µM)	0.5 (≈ 1.13 µM)	0.25 (≈ 0.564 µM)	1 (≈ 2.26 µM)	0.21	4 (≈ 9.02 µM)	O=C(NC[C@H]1CN(c2ccc3c(c2)CCCc2c(-c4ccno4)n[nH]c2-3)C(=O)O1)C(F)F
2 (≈ 5.58 µM)	1 (≈ 2.79 µM)	2 (≈ 5.58 µM)	1 (≈ 2.79 µM)	8 (≈ 22.3 µM)	2.1	8 (≈ 22.3 µM)	CC(=O)NC[C@H]1CN(c2cc(F)c3c(c2)CCCc2cn[nH]c2-3)C(=O)O1
8 (≈ 19.5 µM)	4 (≈ 9.74 µM)	8 (≈ 19.5 µM)	4 (≈ 9.74 µM)	32 (≈ 78 µM)	7.9	64 (≈ 156 µM)	CC(C)C(=O)NC[C@H]1CN(c2ccc3c(c2)CCCc2c(C(C)C)n[nH]c2-3)C(=O)O1
8 (≈ 16.6 µM)	2 (≈ 4.16 µM)	4 (≈ 8.32 µM)	1 (≈ 2.08 µM)	16 (≈ 33.3 µM)	3.7	> 64	O=C(NC[C@H]1CN(c2ccc3c(c2)CCCc2c(-c4cccnc4)n[nH]c2-3)C(=O)O1)c1cccnc1

Compound	MIC (Staphylococcus aureus) [µg/mL]	MIC (Streptococcus pyogenes) [µg/mL]	MIC (Enterococcus faecalis) [µg/mL]	MIC (Streptococcus pneumoniae) [µg/mL]	MIC (Moraxella catarrhalis) [µg/mL]	IC50 (Escherichia coli) [µM]	MIC (Haemophilus influenzae) [µg/mL]
CC(=O)NC[C@H]1CN(c2ccc(N3CCOCC3)c(F)c2)C(=O)O1 [LINEZOLID]		2 (≈ 5.93 µM)					

— ChEMBL document CHEMBL1140680 (Bioorg Med Chem Lett, 2007)
